Measurements from ChEMBL document CHEMBL5653634, “The effect of the PKC inhibitor GF109203X on the release of Ca2+ from internal stores and Ca2+ entry in DDT1 MF-2 cells” (1996).
Activity calls are given as the source filed them. The rule behind the calls is not given here.

Assays:
[1] = Inhibition of PKC in golden hamster DDT1-MF2 cells by measuring calcium 2+ uptake at 10 uM preincubated for 45 mins followed by extracellular calcium 2+ addition measured after 5 mins by liquid scintillation counting analysis (reference value: 100 +/- 6 %); set-up: species or system Mesocricetus auratus; scale not given: the % may be the effect or the level left; conditions: time 50 min
[2] = Inhibition of PKC in golden hamster DDT1-MF2 cells assessed as decrease in calcium 2+ efflux at 5 uM incubated for 10 mins by liquid scintillation counting analysis relative to control; conditions: Mesocricetus auratus, DDT1-MF2, 10 min
[3] = Inhibition of PKC in golden hamster DDT1-MF2 cells assessed as decrease in histamine-induced calcium release by measuring cytoplasmic calcium concentration at 5 uM incubated for 45 mins in presence of LaCl3; set-up: species or system Mesocricetus auratus; conditions: 0.75 h
DDT1-MF2 [4] = experiment: Inhibition of PKC in golden hamster DDT1-MF2 cells assessed as decrease in histamine-induced inositol 1,4,5-trisphosphate formation at 5 uM incubated for 45 mins followed by histamine stimulation by liquid scintillation counting analysis; format: cell-based; conditions: Mesocricetus auratus
[5] = Inhibition of PKC in golden hamster DDT1-MF2 cells by measuring cytoplasmic calcium concentration at 5 uM incubated for 10 mins in presence of LaCl3; set-up: species or system Mesocricetus auratus
[6] = Inhibition of PKC in golden hamster DDT1-MF2 cells assessed as decrease in thapsigargin-induced calcium release by measuring cytoplasmic calcium concentration at 5 uM incubated for 45 mins followed by thapsigargin, PMA and LaCl3 addition measured after 48 hrs; set-up: species or system Mesocricetus auratus; conditions: time 2925 min, 48.75 h
DDT1-MF2 [7] = experiment: Inhibition of PKC in golden hamster DDT1-MF2 cells assessed as decrease in histamine-induced inositol 1,4,5-trisphosphate formation at 5 uM incubated for 45 mins in presence of PMA followed by histamine stimulation by liquid scintillation counting analysis; format: cell-based; conditions: Mesocricetus auratus
[8] = Inhibition of PKC in golden hamster DDT1-MF2 cells by measuring calcium 2+ uptake at 5 uM preincubated for 45 mins followed by extracellular calcium 2+ and thapsigargin addition measured after 5 mins by liquid scintillation counting analysis (reference value: 100 +/- 6 %); set-up: species or system Mesocricetus auratus; scale not given: the % may be the effect or the level left; conditions: time 50 min
[9] = Inhibition of PKC in golden hamster DDT1-MF2 cells assessed as inhibition of histamine-induced calcium response by measuring cytoplasmic calcium concentration at 5 uM preincubated for 45 mins in absence of extracellular calcium 2+ followed by histamine stimulation; set-up: species or system Mesocricetus auratus; conditions: 0.75 h
[10] = Inhibition of PKC in golden hamster DDT1-MF2 cells assessed as inhibition of histamine-induced calcium response by measuring cytoplasmic calcium concentration at 5 uM preincubated for 45 mins in presence of extracellular calcium 2+ followed by histamine stimulation measured after 5 mins; set-up: species or system Mesocricetus auratus; conditions: time 50 min
[11] = Inhibition of PKC in golden hamster DDT1-MF2 cells by measuring calcium 2+ uptake at 5 uM preincubated for 45 mins followed by extracellular calcium 2+ addition measured after 5 mins by liquid scintillation counting analysis (reference value: 100 +/- 6 %); set-up: species or system Mesocricetus auratus; scale not given: the % may be the effect or the level left; conditions: time 50 min
DDT1-MF2 [12] = experiment: Inhibition of PKC in golden hamster DDT1-MF2 cells assessed as decrease in histamine-induced calcium release by measuring cytoplasmic calcium concentration incubated for 45 mins followed by histamine and LaCl3 addition; format: cell-based; conditions: Mesocricetus auratus
[13] = Inhibition of PKC in golden hamster DDT1-MF2 cells assessed as decrease in Ins(1,4,5)P3-induced calcium 2+ efflux at 5 uM incubated for 14 mins by liquid scintillation counting analysis relative to control; conditions: Mesocricetus auratus, DDT1-MF2, 14 min
[14] = Inhibition of PKC in golden hamster DDT1-MF2 cells by measuring cytoplasmic calcium concentration at 5 uM incubated for 10 mins; set-up: species or system Mesocricetus auratus
[15] = Inhibition of PKC in golden hamster DDT1-MF2 cells by measuring basal cytoplasmic calcium concentration at 5 uM incubated for 45 mins in presence of extracellular calcium 2+; set-up: species or system Mesocricetus auratus; conditions: 0.75 h
DDT1-MF2 [16] = experiment: Inhibition of PKC in golden hamster DDT1-MF2 cells assessed as decrease in thapsigargin-induced calcium release by measuring cytoplasmic calcium concentration at 5 uM incubated for 45 mins followed by thapsigargin and LaCl3 addition; format: cell-based; conditions: Mesocricetus auratus
[17] = Inhibition of PKC in golden hamster DDT1-MF2 cells assessed as inhibition of histamine-induced calcium response by measuring maximal cytoplasmic calcium concentration at 5 uM preincubated for 45 mins in presence of extracellular calcium 2+ followed by histamine stimulation; set-up: species or system Mesocricetus auratus; conditions: 0.75 h
[18] = Inhibition of PKC in golden hamster DDT1-MF2 cells assessed as decrease in thapsigargin-induced calcium release by measuring basal cytoplasmic calcium concentration at 5 uM incubated for 45 mins followed by thapsigargin and LaCl3 addition measured after 5 mins; set-up: species or system Mesocricetus auratus; conditions: time 50 min
[19] = Inhibition of PKC in golden hamster DDT1-MF2 cells assessed as decrease in thapsigargin-induced calcium release by measuring cytoplasmic calcium concentration at 5 uM incubated for 45 mins followed by thapsigargin and LaCl3 addition measured after 5 mins; set-up: species or system Mesocricetus auratus; conditions: time 50 min
[20] = Inhibition of PKC in golden hamster DDT1-MF2 cells by measuring calcium 2+ uptake at 5 uM preincubated for 45 mins followed by extracellular calcium 2+ and histamine addition measured after 5 mins by liquid scintillation counting analysis (reference value: 100 +/- 6 %); set-up: species or system Mesocricetus auratus; scale not given: the % may be the effect or the level left; conditions: time 50 min
DDT1-MF2 [21] = experiment: Inhibition of PKC in golden hamster DDT1-MF2 cells assessed as increase in inositol 1,4,5-trisphosphate formation at 5 uM incubated for 45 mins by liquid scintillation counting analysis; format: cell-based; conditions: Mesocricetus auratus
[22] = Inhibition of PKC in golden hamster DDT1-MF2 cells by measuring basal cytoplasmic calcium concentration at 5 uM incubated for 45 mins in absence of extracellular calcium 2+; set-up: species or system Mesocricetus auratus; conditions: 0.75 h
[23] = Inhibition of PKC in golden hamster DDT1-MF2 cells assessed as inhibition of histamine-induced calcium response by measuring maximal cytoplasmic calcium concentration at 0.5 uM preincubated for 5 mins in presence of extracellular calcium 2+ followed by histamine stimulation; set-up: species or system Mesocricetus auratus
[24] = Inhibition of PKC in golden hamster DDT1-MF2 cells by measuring inositol 1,4,5-trisphosphate level measured per 10^6 cells at 1 uM incubated for 48 hrs; set-up: species or system Mesocricetus auratus
DDT1-MF2 [25] = experiment: Inhibition of PKC in golden hamster DDT1-MF2 cells assessed as decrease in histamine-induced inositol 1,4,5-trisphosphate formation at 1 uM incubated for 5 mins followed by histamine stimulation by liquid scintillation counting analysis; format: cell-based; conditions: Mesocricetus auratus
[26] = Inhibition of PKC in golden hamster DDT1-MF2 cells assessed as decrease in histamine-induced inositol 1,4,5-trisphosphate formation by measuring inositol 1,4,5-trisphosphate level measured per 10^6 cells at 1 uM incubated for 48 hrs followed by histamine addition; set-up: species or system Mesocricetus auratus
[27] = Inhibition of PKC in golden hamster DDT1-MF2 cells assessed as inhibition of histamine-induced calcium response by measuring cytoplasmic calcium concentration at 0.5 uM preincubated for 5 mins in absence of extracellular calcium 2+ followed by histamine stimulation; set-up: species or system Mesocricetus auratus
[28] = Inhibition of PKC in golden hamster DDT1-MF2 cells assessed as inhibition of histamine-induced calcium response by measuring maximal cytoplasmic calcium concentration at 0.5 uM preincubated for 5 mins in presence of extracellular calcium 2+ followed by histamine stimulation measured after 5 mins; set-up: species or system Mesocricetus auratus; conditions: time 10 min
[29] = Inhibition of PKC in golden hamster DDT1-MF2 cells by measuring basal cytoplasmic calcium concentration at 0.5 uM incubated for 5 mins in presence of extracellular calcium 2+; set-up: species or system Mesocricetus auratus
[30] = Inhibition of PKC in golden hamster DDT1-MF2 cells by measuring basal cytoplasmic calcium concentration at 0.5 uM incubated for 5 mins in absence of extracellular calcium 2+; set-up: species or system Mesocricetus auratus
[31] = Inhibition of PKC in golden hamster DDT1-MF2 cells by measuring calcium 2+ uptake at 1 uM preincubated for 45 mins followed by extracellular calcium 2+ addition measured after 5 mins by liquid scintillation counting analysis (reference value: 100 +/- 6 %); set-up: species or system Mesocricetus auratus; scale not given: the % may be the effect or the level left; conditions: time 50 min

Structure (SMILES): Cn1cc(C2=C(c3cn(CCCSC(=N)N)c4ccccc34)C(=O)NC2=O)c2ccccc21 [BISINDOLYLMALEIMIDE IX]
- Activity [1]: 135%

Structure (SMILES): CN(C)CCCn1cc(C2=C(c3c[nH]c4ccccc34)C(=O)NC2=O)c2ccccc21 [GF-109203]
- inhibition at 5 µM [2]: 93%
- Activity [3]: 38 nM
- inhibition (DDT1-MF2 [4]): inactive
- Activity [5]: 7 nM
- Activity [6]: 73 nM
- inhibition (DDT1-MF2 [7]): inactive
- Activity [8]: 238%
- Activity [9]: 40 nM
- Activity [10]: 42 nM
- Activity [11]: 167%
- inhibition (DDT1-MF2 [12]): Dose-Dependent Effect
- inhibition at 5 µM [13]: 58%
- Activity [14]: 9 nM
- Activity [15]: 102 nM
- inhibition (DDT1-MF2 [16]): Active
- Activity [17]: 63 nM
- Activity [18]: 105 nM
- Activity [19]: 68 nM
- Activity [20]: 155%
- inhibition (DDT1-MF2 [21]): Active
- Activity [22]: 82 nM

Structure (SMILES): CCCCCCCCCCCCCC(=O)O[C@@H]1[C@@H](C)[C@@]2(O)[C@@H](C=C(CO)C[C@]3(O)C(=O)C(C)=C[C@@H]23)[C@@H]2C(C)(C)[C@]12OC(C)=O [PHORBOL MYRISTATE ACETATE]
- Activity [23]: 50 nM
- Activity [24]: 11.6 pmol
- inhibition (DDT1-MF2 [25]): Active
- Activity [26]: 11.5 pmol
- Activity [27]: 53 nM
- Activity [28]: 0 nM
- Activity [29]: 129 nM
- Activity [30]: 80 nM

Structure (SMILES): C/C=C(/C)C(=O)O[C@H]1C(C)=C2[C@H]([C@@H]1OC(=O)CCCCCCC)[C@@](C)(OC(C)=O)C[C@H](OC(=O)CCC)[C@@]1(O)[C@H]2OC(=O)[C@@]1(C)O [THAPSIGARGIN]
- Activity [31]: 221%
